“Also recorded” adds a separate entry of the source. Values belong to the compound of their own block, whether it stands above or below them. Peptide text beside a SMILES is read from it. * marks the point of attachment. Cbz = O=C(OCc1ccccc1)*
Experiments:
[1] = test system: KB-3-1cisR xenograft tumors; assay: Xenograft mice bearing KB-3-1cisR tumors treated with 17-AAG and cisplatin; format: in vivo
Experimental: Mice were treated with cisplatin (5 mg/kg) and 17-AAG (50 mg/kg) from 5 days after xenograft.
(§1) These in vitro observations were confirmed in vivo.
(§2) Experiments were performed to determine whether ubiquitination of MAST1 at K317 and K545 upon hsp90 inhibition is involved in MAST1-mediated cisplatin-resistant cancer cell proliferation and tumor growth. […] The effect of MAST1 WT or 2KR was monitored in cells with MAST1 knockdown. […] This finding was further validated in vivo.

[2] = test system: cisplatin-resistant cancer cells; assay: Cisplatin response and cell viability of cisplatin-resistant cancer cells with 17-AAG; format: cell-based, human
Experimental: as §1, §2

AKT or cRaf = assay: Protein levels of other hsp90 client proteins upon 17-AAG treatment; format: cell-based, human; conditions: same doses of 17-AAG as diminish MAST1
Experimental: (§3) Proteins that interact with MAST1 in cells were investigated through 2-dimensional (2D) gel electrophoresis-based proteomic profiling. GST or GST-fused MAST1 was pulled down from human 293T cells. The protein captured by GST-MAST1 but not by GST alone was excised from the 2D gel. Through mass spectrometry-based (MS-based) proteomic analysis, hsp90B was identified as a potential binding partner of MAST1. […] Experiments were performed to determine whether the interaction is limited to the hsp90B isoform by comparing the interaction between MAST1 and hsp90B or hsp90A. Hsp90A, another isoform of hsp90, also binds to MAST1 in cisplatin-resistant cancer cells. Although hsp90A binds to MAST1 in cisplatin-resistant cancer cells, the interaction was weaker compared with hsp90B. […] Experiments were performed to determine whether treatment with 17-AAG, a selective inhibitor of hsp90, alters MAST1 protein levels in cells.
(§4) The ubiquitination status of MAST1 in the presence and absence of hsp90 was assessed. […] This was further confirmed in cisplatin-resistant cancer cells.

MAST1 [3] = assay: MAST1 protein level in cancer cells upon 17-AAG treatment; format: cell-based, human
Experimental: as §3
Through a MS-based proteomic analysis, it was identified that MAST1 is specifically ubiquitinated at lysine residues K317 and K545 upon hsp90 inhibition. To investigate whether these 2 residues are the main ubiquitination sites of MAST1 that mediate proteasomal degradation upon hsp90 inhibition, the lysine-to-arginine mutant forms of MAST1, K317R, K545R, and the double KR mutant K317R/K545R (2KR) were generated.
as §2

hsp90A = hsp90A (Homo sapiens, UniProt P07900)
hsp90B = hsp90B (Homo sapiens, UniProt P08238)
MEK1 [4] = assay: MEK1 activity in cisplatin-resistant cells upon 17-AAG treatment; format: cell-based, human; conditions: MAST1 WT
Experimental: as §2

MAST1 mRNA = MAST1 mRNA expression upon 17-AAG treatment; format: cell-based, human
MAST1 [5] = assay: MAST1 ubiquitination and degradation with proteasome inhibitor; format: cell-based, human
Experimental: as §4

GR = GR intracellular location by immunofluorescence staining; format: cell-based, human; conditions: KB-3-1 cancer cell line
Description: To explore the molecular mechanism by which the transcription factor activity of GR is enhanced by cisplatin treatment, the intracellular location of GR in cisplatin-treated cells was investigated. GR resides predominantly in the cytoplasm as part of a heterooligomeric complex of HSP 40, 70, and 90 and other proteins. Binding to its agonist ligand changes the conformation of GR, which dissociates from the HSPs and possibly other protein factors, and translocates into the nucleus. The nuclear translocated GR is considered to be activated GR. Thus, experiment were performed to determine whether cisplatin treatment changes the cellular location of GR from the cytosol to the nucleus in cancer cells. […] This observation was confirmed in vivo in xenograft mice. […] Furthermore, the translocation of GR was found in paired primary HNSCC patient tumors. GR was located mainly in the cytosol in tumors collected from patients before cisplatin or carboplatin therapy, whereas the GR was predominantly stained in the nucleus in tumors collected from patients after the therapy. These experiments indicate that cisplatin treatment activates GR by translocating it to the nucleus in cancer cells.

[6] = test system: KB-3-1 xenografted tumors; assay: Xenograft mice bearing KB-3-1 tumors treated with cisplatin; format: in vivo
Experimental: (§5) Experiments were performed to determine whether MAST1 is induced by cisplatin treatment. Cell line-based studies indicate that MAST1 is increased upon cisplatin treatment in three cancer cell lines, KB-3-1, A549, and A2780. To validate this observation in vivo, cisplatin-resistant tumors were established by treating KB-3-1 bearing mice with sub-effective doses of cisplatin. The MAST1 gene was induced in xenografted tumors after cisplatin administration in mice. […] Cisplatin-resistant refers to patients with tumor recurrence within two years of cisplatin or carboplatin-based chemotherapy.
To explore the molecular mechanism by which the transcription factor activity of GR is enhanced by cisplatin treatment, the intracellular location of GR in cisplatin-treated cells was investigated. GR resides predominantly in the cytoplasm as part of a heterooligomeric complex of HSP 40, 70, and 90 and other proteins. Binding to its agonist ligand changes the conformation of GR, which dissociates from the HSPs and possibly other protein factors, and translocates into the nucleus. The nuclear translocated GR is considered to be activated GR. Thus, experiment were performed to determine whether cisplatin treatment changes the cellular location of GR from the cytosol to the nucleus in cancer cells. […] This observation was confirmed in vivo in xenograft mice. […]

MAST1 [7] = assay: MAST1 induction by cisplatin in cancer cell lines; format: cell-based, human; conditions: KB-3-1, A549, and A2780 cell lines
Experimental: as §5

MAST1 promoter = MAST1 promoter reporter activity assay; format: cell-based, human; conditions: pMAST1-luc reporter
Experimental: (§6) The Transcription Factor Activation Profiling Array detects activities of 96 cellular TFs, including HIF1, p53, and NF-kB, which are essential in regulating cellular gene expression. Among the 96 TFs, 6 were activated more than 1.8-fold when cells were treated with cisplatin, including GR/[…] (PR), NFAT, ATF2, CAR, and CBF. To investigate whether any of these TFs activate the MAST1 promoter, these 6 TFs were knocked down in KB-3-1 cells and a MAST1 promoter reporter activity assay was performed in the presence of cisplatin. Knockdown of GR but not other TFs attenuated MAST1 promoter activity. In addition, modulation of GR affected MAST1 promoter activity in the presence of cisplatin in cancer cells. Target downregulation or overexpression of GR abolished or enhanced MAST1 promoter activity in a cisplatin dose-dependent manner in KB-3-1 cells. In line with the changes seen in MAST1 mRNA, MAST1 protein level correlated with GR level in cancer cells (FIG. 3D).
GR binds to the glucocorticoid response element (GRE) on DNA within the promoter region and regulates genes. A GRE was identified within the MAST1 promoter sequence at −44 to −58. […]

96 cellular TFs = assay: Transcription Factor Activation Profiling Array; format: cell-based, human; conditions: cisplatin treated vs nontreated KB-3-1 cells
Experimental: as §6

MEK1 [8] = assay: MEK1 activity by p-MEK1 S217/S221 blot, GR antagonist or agonist with cisplatin; format: cell-based, human; conditions: KB-3-1 cells
Experimental: (§7) Loss of GR sensitizes cells to cisplatin. GR was inhibited by shRNA (top) or by antagonist (bottom) in the presence or absence of cisplatin. Cell viability and MEK activity was measured by CellTiter-Glo™ Luminescent Cell Viability assay and p-MEK1 S217/S221 blot, respectively. Cisplatin: 1 μg/ml, Mifepristone: 10 μM.
(§8) GR was enhanced by overexpression (top) or agonist (bottom) and cell viability and MEK1 activity was measured, cisplatin: 3 μg/ml, dexamethasone: 0.5 μM.
(§9) To investigate whether GR contributes to cisplatin resistance in cancer cells, GR was genetically or pharmacologically modulated and changes in cisplatin-resistant cancer cell proliferation as well as the activity of MEK1, which is the predominant substrate of MAST1, was monitored. […] Exogenous overexpression of myc tagged MAST1 restored the attenuated cisplatin-resistant cell growth and MEK1 activity in KB-3-1 cells with GR inhibition either by GR shRNA or GR antagonist mifepristone (FIG. 2A). […] In contrast, reduction of MAST1 by shRNA abolished the elevated cisplatin resistant cancer cell proliferation and MEK1 activity in KB-3-1 cells with activated GR either by flag-GR overexpression or GR agonist dexamethasone (FIG. 2C). Knockdown of MAST1 dramatically attenuated cisplatin resistant tumor growth in xenograft mice bearing flag-GR stably overexpressed KB-3-1 cells (FIG. 2D).

[9] = test system: ovarian cancer and head and neck cancer PDX; assay: Tumor volume in PDX mice treated with cisplatin, dexamethasone and lestaurtinib; format: in vivo; conditions: 5 mg/kg cisplatin, 0.1 mg/kg dexamethasone twice/week, 20 mg/kg lestaurtinib daily
Experimental: Tumor volumes were measured by caliper.
Therefore, we performed pilot experiments in vitro and in vivo to examine the concept.

GR, MAST1 = assay: Dexamethasone effect on GR activity, MAST1 expression and cisplatin-resistant tumor growth; conditions: treatment with dexamethasone
KB-3-1 cells = assay: CellTiter-Glo Luminescent Cell Viability assay, GR antagonist or agonist with cisplatin; format: cell-based, human
Experimental: as §7, §8, §9

[10] = cisplatin 3 μg/ml, dexamethasone 0.5 μM
[11] = cisplatin 1 μg/ml, mifepristone 10 μM

Sequence of hsp90B (P08238 whole entry): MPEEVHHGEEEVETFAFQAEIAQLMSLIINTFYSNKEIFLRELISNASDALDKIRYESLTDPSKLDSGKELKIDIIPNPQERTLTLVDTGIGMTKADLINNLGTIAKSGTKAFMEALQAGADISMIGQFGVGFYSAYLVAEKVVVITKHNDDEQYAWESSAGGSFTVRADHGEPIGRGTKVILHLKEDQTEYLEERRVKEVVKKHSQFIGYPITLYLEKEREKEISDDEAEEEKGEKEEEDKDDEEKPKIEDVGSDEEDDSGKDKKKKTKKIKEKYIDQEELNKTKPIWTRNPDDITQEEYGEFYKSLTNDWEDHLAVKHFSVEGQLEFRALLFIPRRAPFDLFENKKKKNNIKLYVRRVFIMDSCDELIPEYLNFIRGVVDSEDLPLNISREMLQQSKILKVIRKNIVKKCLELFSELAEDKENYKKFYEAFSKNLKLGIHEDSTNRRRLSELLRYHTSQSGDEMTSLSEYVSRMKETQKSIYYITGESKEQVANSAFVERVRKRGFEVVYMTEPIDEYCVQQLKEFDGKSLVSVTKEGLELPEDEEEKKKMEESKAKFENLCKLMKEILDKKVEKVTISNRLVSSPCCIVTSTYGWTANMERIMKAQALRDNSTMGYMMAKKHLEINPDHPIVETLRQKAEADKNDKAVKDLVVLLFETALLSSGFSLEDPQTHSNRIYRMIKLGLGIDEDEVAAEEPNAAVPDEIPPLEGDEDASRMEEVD

binding to hsp90A (SPR) (hsp90A): binds to both hsp90A and hsp90B
binding to hsp90B (SPR) (hsp90B): binds to both hsp90A and hsp90B
SMILES: C=CCNC1=C2CC(C)CC(OC)C(O)C(C)C=C(C)C(OC(N)=O)C(OC)C=CC=C(C)C(=O)NC(=CC1=O)C2=O (centres unmarked) [17-AAG, 19-(allylamino)-13-hydroxy-8,14-dimethoxy-4,10,12,16-tetramethyl-3,20,22-trioxo-2-azabicyclo[16.3.1]docosa-1(21),4,6,10,18-pentaen-9-yl carbamate]
tumor growth, MAST1 2KR xenograft tumors ([1]; KB-3-1cisR MAST1 2KR, cisplatin (5 mg/kg) and 17-AAG (50 mg/kg)): resistant to these effects of 17-AAG treatment
tumor growth, MAST1 WT xenograft tumors ([1]; KB-3-1cisR MAST1 WT, cisplatin (5 mg/kg) and 17-AAG (50 mg/kg)): attenuated tumor growth upon cisplatin exposure
MAST1 protein level in xenograft tumors ([1]; xenograft mice, with cisplatin): decreased
xenograft tumor response to cisplatin ([1]; xenograft mice, with cisplatin): sensitized xenograft tumors to cisplatin
cell viability and cisplatin resistance, cells expressing MAST1 2KR ([2]; MAST1 2KR, in the presence of cisplatin): no significant decrease in cell viability and cisplatin resistance
cell viability and cisplatin resistance, cells expressing MAST1 WT ([2]; MAST1 WT, in the presence of cisplatin): sensitive to 17-AAG treatment
cisplatin resistance of cisplatin-resistant cancer cells ([2]; with cisplatin): significantly sensitized cisplatin-resistant cancer cells to cisplatin
protein levels of hsp90 client proteins AKT or cRaf (AKT or cRaf): insufficient to decrease
2KR MAST1 protein (MAST1 [3]; MAST1 K317R/K545R (2KR)): remained intact
wild-type (WT) MAST1 protein (MAST1 [3]; MAST1 WT): degraded upon 17-AAG treatment in a dose-dependent manner
MAST1 protein levels (MAST1 [3]; cancer cells): diminished MAST1 protein levels in a dose-dependent manner; also recorded: decreased the level of MAST1
activity of the downstream substrate MEK1 (MEK1 [4]): attenuated activity of the downstream substrate MEK1
MAST1 mRNA expression levels (MAST1 mRNA): remained unchanged

SMILES: CC(C)C[C@@H](C=O)NC(=O)[C@H](CC(C)C)NC(=O)[C@H](CC(C)C)NC(=O)OCc1ccccc1 [MG-132] (Cbz-Leu-Leu-Leu-aldehyde)
17-AAG-mediated MAST1 degradation (MAST1 [5]; 293T cells): prevented 17-AAG-mediated MAST1 degradation
MAST1 ubiquitination (MAST1 [5]; proteasome inhibitor treatment): led to MAST1 ubiquitination

SMILES: N.N.[Cl][Pt][Cl] [cisplatin]
GR cellular location (GR): translocated from the cytosol to the nucleus
GR location in xenograft tumors ([6]; administration of cisplatin): nuclear translocation of GR
MAST1 gene in xenografted tumors ([6]; after cisplatin administration in mice): induced
MAST1 level upon cisplatin treatment (MAST1 [7]): increased
WT MAST1 promoter activity (MAST1 promoter): induced WT MAST1 promoter activity
transcription factor activation (6 of 96 TFs incl. GR/PR, NFAT, ATF2, CAR, CBF) (96 cellular TFs): more than 1.8 fold

SMILES: CC1CC2C3CCC4=CC(=O)C=CC4(C)C3(F)C(O)CC2(C)C1(O)C(=O)CO (centres unmarked) [dexamethasone, 9-fluoro-11,17-dihydroxy-17-(2-hydroxyacetyl)-10,13,16-trimethyl-6,7,8,9,10,11,12,13,14,15,16,17-dodecahydro-3H-cyclopenta [a]phenanthren-3-one]
MEK1 activity (MEK1 [8]; [10]): reactivation of MEK1
tumor growth (tumor volume) [9]: abolished the cisplatin effect
GR activity, MAST1 expression, cisplatin-resistant tumor growth (GR, MAST1): enhanced GR activity, MAST1 expression, and cisplatin-resistant tumor growth
cisplatin response (cell viability) (KB-3-1 cells; [10]): conferred cisplatin resistance to cancer cells

SMILES: CC#CC1(O)CCC2C3CCC4=CC(=O)CCC4=C3C(c3ccc(N(C)C)cc3)CC21C (centres unmarked) [mifepristone, 11-(4-(dimethylamino)phenyl)-17-hydroxy-13-methyl-17-(prop-1-yn-1-yl)-1,2,6,7,8,11,12,13,14,15, 16,17-dodecahydro-3H-cyclopenta[a]phenanthren-3-one]
MEK1 activity (MEK1 phosphorylation at S217/S221) (MEK1 [8]; [11]): attenuated MEK1 activity
cisplatin response (cell viability) (KB-3-1 cells; [11]): sensitized cancer cells to cisplatin treatment

— US12527818B2, “Platinum-based chemotherapy, mast binding agents, glucocorticoid receptor (GR) binding agents, and/or HSP90 binding agents for uses in treating cancer” (Emory University, priority 2019, dated 2026)
